Measured values as given in patent EP0326331B1, “Substituted quinolines and cinnolines” (Dow AgroSciences LLC, priority 1988, dated 1989).
Like-named read-outs stand apart in the source and are kept apart here.

Key:
Format in all cases: in vivo
[1] = tested on: Erysiphe graminis tritici (powdery mildew); assay: Test 1 greenhouse foliar spray screen, powdery mildew on wheat; conditions: for POWD MDEW: disease control rating, foliar spray on wheat, 400 ppm (+++ at 100 ppm)
[2] = tested on: Pyricularia oryzae (rice blast); assay: whole plant or invertebrate; conditions: for RICE BLAST: disease control rating, foliar spray on rice, 400 ppm (+++ at 100 ppm)
[3] = tested on: Puccinia recondita tritici (leaf rust); assay: Test 1 greenhouse foliar spray screen, leaf rust on wheat; conditions: for LEAF RUST: disease control rating, foliar spray on wheat, 400 ppm (+++ at 100 ppm)
[4] = tested on: Botrytis cinerea (gray mold); assay: Test 1 greenhouse foliar spray screen, gray mold on grape berries; conditions: for GRAY MOLD: disease control rating, spray on grape berries, 400 ppm (+++ at 100 ppm)
[5] = tested on: Pseudoperonospora cubensis (downy mildew); assay: Test 1 greenhouse foliar spray screen, downy mildew on squash; conditions: disease control rating, foliar spray on squash, 400 ppm (+++ at 100 ppm)
[6] = tested on: southern armyworm (Spodopetra eridania Cramer); assay: Mite/insect screen, SAW; conditions: Spodoptera eridania, percent mortality, read-out: SAW RESULTS %
Protocol: (§1) The compounds of Examples 1-295 were tested for miticidal and insecticidal activity in the following mite/insect screen.
(§2) Each test compound was formulated by dissolving the compound in acetone/alcohol (50:50) mixture containing 23 g of "TOXIMUL R" (sulfonate/nonionic emulsifier blend) and 13 g of "TOXIMUL S" (sulfonate/nonionic emulsifier blend) per liter. These mixtures were then diluted with water to give the indicated concentrations.
(§3) Other plants in the same treatment pot were left uninfested. The leaves were then sprayed with 5 ml of test solution using a DeVilbiss atomizing sprayer at 10 psi. Both surfaces of the leaves were covered until runoff, and then allowed to dry for one hour. Two uninfested leaves were then excised and placed into a Petri dish containing southern armyworm (Spodopetra eridania Cramer).
(§4) After standard exposure periods, percent mortality was evaluated. […]

[7] = tested on: Twospotted spider mites (Tetranychus urticae Koch); assay: Mite/insect screen, SM; conditions: Tetranychus urticae, percent mortality, read-out: SM RESULTS %
Protocol: as §1, §2, §3, §4

[8] = tested on: melon aphids (Aphis gossypii Glover); assay: Mite/insect screen, MA; conditions: Aphis gossypii, percent mortality, read-out: MA RESULTS %
Protocol: as §1, §2, §3, §4

[9] = tested on: corn rootworm; assay: Mite/insect screen, CRW; conditions: percent mortality, read-out: CRW RESULTS %
Protocol: as §1, §2, §4

[10] = foliar, rate 200 ppm, foliar spray on squash
[11] = foliar, rate 400 ppm, foliar spray on squash

SMILES	POWD MDEW [1]	RICE BLAST [2]	LEAF RUST [3]	GRAY MOLD [4]	DOWN MDEW [5]	mortality at 200 ppm ([6]; SAW, SM & MA RATE 200 PPM)	mortality at 200 ppm ([7]; SAW, SM & MA RATE 200 PPM)	mortality at 200 ppm ([8]; SAW, SM & MA RATE 200 PPM)	mortality at 12 ppm ([9]; CRW RATE 12.00 PPM)	mortality at 400 ppm ([6]; SAW, SM & MA RATE 400 PPM)	mortality at 400 ppm ([7]; SAW, SM & MA RATE 400 PPM)	mortality at 400 ppm ([8]; SAW, SM & MA RATE 400 PPM)	mortality at 24 ppm ([9]; CRW RATE 24.00 PPM)	other results
CCc1cccc2c(NCCc3ccccc3)ccnc12 [Example 29, 8-ethyl-N-(2-phenylethyl)-4-quinolinamine]	- (0-19% control at 400 ppm)	+ (20-89% control at 400 ppm)	+ (20-89% control at 400 ppm)	- (0-19% control at 400 ppm)	- (0-19% control at 400 ppm)	0%	0%	0%	0%					
Clc1ccc(CCNc2ccnc3cc(Cl)ccc23)cc1 [Example 37, 7-chloro-N-[2-(4-chlorophenyl)ethyl]-4-quinolinamine]	+ (20-89% control at 400 ppm)	- (0-19% control at 400 ppm)	+ (20-89% control at 400 ppm)	- (0-19% control at 400 ppm)	+ (20-89% control at 400 ppm)	0%	0%	0%	0%	0%	0%	0%	0%	
Fc1cc(F)c2nccc(NCCc3ccc(-c4ccccc4)cc3)c2c1 [Example 40, 6,8-difluoro-N-(2-[1,1'-biphenyl]-4-ylethyl)-4-quinolinamine]	- (0-19% control at 400 ppm)	++ (90-100% control at 400 ppm)	+++ (90-100% control at 100 ppm)	- (0-19% control at 400 ppm)	+ (20-89% control at 400 ppm)	0%	0%	0%	0%	80%	0%	0%	100%	
FC(F)(F)c1ccc2c(NCCc3ccc(Cl)cc3)ccnc2c1 [Example 47, N-[2-(4-chlorophenyl)ethyl]-7-(trifluoromethyl)-4-quinolinamine]	+ (20-89% control at 400 ppm)	- (0-19% control at 400 ppm)	+ (20-89% control at 400 ppm)	- (0-19% control at 400 ppm)	+ (20-89% control at 400 ppm)	0%	0%	0%	0%	0%	0%	0%	0%	
Cc1ccc(CCNc2ccnc3ccc(C)cc23)cc1 [Example 58, 6-methyl-N-[2-(4-methylphenyl)ethyl]-4-quinolinamine]	- (0-19% control at 400 ppm)	- (0-19% control at 400 ppm)	+ (20-89% control at 400 ppm)	- (0-19% control at 400 ppm)	+++ (90-100% control at 100 ppm)					0%	0%	0%	0%	
Clc1ccc(CCNc2ccnc3cc(Cl)cc(Cl)c23)cc1 [Example 59, 5,7-dichloro-N-[2-(4-chlorophenyl)ethyl]-4-quinolinamine]	+ (20-89% control at 400 ppm)	+ (20-89% control at 400 ppm)	- (0-19% control at 400 ppm)	- (0-19% control at 400 ppm)	- (0-19% control at 400 ppm)	0%	0%	0%	0%	0%	0%	0%	0%	
Clc1ccc2c(NCCc3cccc(Oc4ccccc4)c3)ccnc2c1 [Example 60, 7-chloro-N-[2-(3-phenoxyphenyl)ethyl]-4-quinolinamine]	++ (90-100% control at 400 ppm)	+++ (90-100% control at 100 ppm)	++ (90-100% control at 400 ppm)	- (0-19% control at 400 ppm)	+++ (90-100% control at 100 ppm)	0%	0%	0%	0%	0%	0%	0%	0%	
Cc1cccc2c(NCCc3ccc(Cl)cc3)ccnc12 [Example 61, 8-methyl-N-[2-(4-chlorophenyl)ethyl]-4-quinolinamine]	- (0-19% control at 400 ppm)	++ (90-100% control at 400 ppm)	++ (90-100% control at 400 ppm)	- (0-19% control at 400 ppm)	+++ (90-100% control at 100 ppm)	0%	0%	0%	0%	0%	0%	0%	0%	
[O-][S+](CCc1ccccc1)c1ccnc2c(F)cccc12 (stereo not drawn) [Example 264, 8-fluoro-4-[(2-phenylethyl)sulfinyl]quinoline]														pest or weed control at 400 ppm ([1]; Blumeria graminis, foliar, Test 1, foliar spray on wheat, disease control rating at 400 ppm / 100 ppm, read-out: POWD MDEW): 0 to 19%; pest or weed control at 400 ppm ([2]; Pyricularia oryzae, foliar, read-out: RICE BLAST, Test 1, foliar spray on rice, disease control rating at 400 ppm / 100 ppm): 0 to 19%; pest or weed control at 400 ppm ([3]; Puccinia recondita, foliar, Test 1, foliar spray on wheat, disease control rating at 400 ppm / 100 ppm): 20 to 89%; pest or weed control at 400 ppm ([4]; Botrytis cinerea, foliar, Test 1, spray on grape berries, disease control rating at 400 ppm / 100 ppm): 0 to 19%; mortality at 200 ppm [6, 10]: 0%; mortality at 400 ppm [6, 11]: 0%; mortality at 200 ppm [7, 10]: 0%; mortality at 400 ppm [7, 11]: 0%; mortality at 200 ppm [8, 10]: 0%; mortality at 400 ppm [8, 11]: 0%; mortality at 12 ppm ([9]; CRW rate 12.00 ppm): 0%; mortality at 24 ppm ([9]; CRW rate 24.00 ppm): 0%
